According to paper PMC11063393 (Heliyon, 2024):

Target: tyrosinase
Experiment: absorbance at […] nm, L-DOPA oxidation
Assay type: biochemical
Details: L-DOPA […] stock, […] phosphate, pH […] °C, […] min preincubation

## O=c1c(O)c(-c2ccc(O)c(O)c2)oc2cc(O)cc(O)c12 [Quercetin]
  Control (Quercetin) / IC50 (μg/mL)s: 22.15 ± 0.12 µg/mL
